# Laboratory results from patent US9333195B2 (priority 1999, dated 2016).
# Counter-ions that a name gives are not always drawn.
# Target: human muscarinic receptors Hm3 (Homo sapiens (Human), UniProt P20309)
# Test: biochemical
# Assay type: binding
# Details: not given
row,Compound,IC50
1,"O=C(O[C@H]1C[N+]2(CC=Cc3ccccc3)CCC1CC2)C(O)(c1ccccc1)c1ccco1 (mixture of isomers) [Example 17, 3(R)-(2-Furan-2-yl-2-hydroxy-2-phenylacetoxy)-1-(3-phenylallyl)-1-azoniabicyclo[2.2.2]octane; bromide]",14 nM

# Same assay, conditions: read-out: BINDING TO RECEPTOR M3 (IC50 nM)
row,Compound,IC50
1,"O=C(O[C@H]1C[N+]2(CCCOc3ccccc3)CCC1CC2)C(c1ccccc1)c1ccccc1 [Example 1, 3 (R)-Diphenylacetoxy-1-(3-phenoxypropyl)-1-azoniabicyclo[2.2. 2]octane; bromide]",31 nM
2,"CC(C(=O)O[C@H]1C[N+]2(CCCOc3ccccc3)CCC1CC2)(c1ccccc1)c1ccccc1 [Example 7, 3(R)-(2,2-Diphenylpropionyloxy)-1-(3-phenoxypropyl)-1-azoniabicyclo[2.2.2]octane; bromide]",22 nM
3,"O=C(O[C@H]1C[N+]2(CCCOc3ccccc3)CCC1CC2)C(O)(c1ccccc1)c1cccs1 (stereo partly drawn) [Example 8, 3(R)-(2-Hydroxy-2-phenyl-2-thien-2-ylacetoxy)-1-(3-phenoxypropyl)-1-azoniabicyclo[2.2.2]octane; bromide]",4.8 nM
4,"O=C(O[C@H]1C[N+]2(CCOc3ccccc3)CCC1CC2)C(O)(c1ccccc1)c1ccco1 (stereo partly drawn) [Example 18, 3(R)-(2-Furan-2-yl-2-hydroxy-2-phenylacetoxy)-1-(2-phenoxyethyl)-1-azoniabicyclo[2.2.2]octane; bromide]",6.6 nM
5,"O=C(O[C@H]1C[N+]2(CCCOc3ccccc3)CCC1CC2)C(O)(c1ccccc1)c1ccco1 (stereo partly drawn) [Example 20, 3(R)-(2-Furan-2-yl-2-hydroxy-2-phenylacetoxy)-1-(3-phenoxypropyl)-1-azoniabicyclo[2.2.2]octane; bromide]",6.8 nM
6,"O=C(O[C@H]1C[N+]2(CCCOc3ccccc3)CCC1CC2)C(c1cccs1)c1cccs1 [Example 35, 3(R)-(2,2-Dithien-2-ylacetoxy)-1-(3-phenoxypropyl)-1-azoniabicyclo[2.2.2]octane; bromide]",13 nM
7,"O=C(O[C@H]1C[N+]2(CCCCc3ccccc3)CCC1CC2)C(O)(c1cccs1)c1cccs1 [Example 39, 3(R)-(2-Hydroxy-2,2-dithien-2-ylacetoxy)-1-(4-phenylbutyl)-1-azoniabicyclo[2.2.2]octane; bromide]",3.8 nM
8,"O=C(O[C@H]1C[N+]2(CCCOc3ccc(F)cc3)CCC1CC2)C(O)(c1cccs1)c1cccs1 [Example 53, 1-[3-(4-Fluorophenoxy)propyl]-3(R)-(2-hydroxy-2,2-dithien-2-ylacetoxy)-1-azoniabicyclo[2.2.2]octane; chloride]",5.6 nM
9,"O=C(O[C@H]1C[N+]2(CCCOc3ccccc3O)CCC1CC2)C(O)(c1cccs1)c1cccs1 [Example 71, 3(R)-(2-Hydroxy-2,2-dithien-2-ylacetoxy)-1-[3-(2-hydroxyphenoxy)propyl]-1-azoniabicyclo[2.2.2]octane; trifluoroacetate]",8.2 nM
10,"O=C(O[C@H]1C[N+]2(CCCn3cccc3)CCC1CC2)C(O)(c1cccs1)c1cccs1 [Example 74, 3(R)-(2-Hydroxy-2,2-dithien-2-ylacetoxy)-1-(3-pyrrol-1-ylpropyl)-1-azoniabicyclo[2.2.2]octane; trifluoroacetate]",16 nM
11,"O=C(O[C@H]1C[N+]2(CCCc3cccs3)CCC1CC2)C(O)(c1cccs1)c1cccs1 [Example 78, 3(R)-(2-Hydroxy-2,2-dithien-2-ylacetoxy)-1-(3-thien-2-ylpropyl)-1-azoniabicyclo[2.2.2]octane; bromide]",5 nM
12,"O=C(O[C@H]1C[N+]2(CCOCc3ccccc3)CCC1CC2)C(O)(c1cccs1)c1cccs1 [Example 84, 1-(2-Benzyloxyethyl)-3(R)-(2-hydroxy-2,2-dithien-2-ylacetoxy)-1-azoniabicyclo[2.2.2]octane; trifluoroacetate]",9.9 nM
13,"O=C(O[C@H]1C[N+]2(CCCOc3ccccc3)CCC1CC2)C(O)(c1ccsc1)c1ccsc1 [Example 89, 3(R)-(2-Hydroxy-2,2-dithien-3-ylacetoxy)-1-(3-phenoxypropyl)-1-azoniabicyclo[2.2.2]octane; bromide]",5.4 nM
14,"CC1(C(=O)O[C@H]2C[N+]3(CC=Cc4ccccc4)CCC2CC3)c2ccccc2-c2ccccc21 [Example 114, 3(R)-(9-Methyl-9[H]-fluorene-9-carbonyloxy)-1-(3-phenylallyl)-1-azoniabicyclo[2.2.2]octane; bromide]",14 nM
15,"CC1(C(=O)O[C@H]2C[N+]3(CCCOc4ccccc4)CCC2CC3)c2ccccc2-c2ccccc21 [Example 116, 3(R)-(9-Methyl-9[H]-fluorene-9-carbonyloxy)-1-(3-phenoxypropyl)-1-azoniabicyclo[2.2.2]octane; bromide]",23 nM
16,"O=C(O[C@H]1C[N+]2(CCCc3cccs3)CCC1CC2)C1(O)c2ccccc2Oc2ccccc21 [Example 138, 3(R)-(9-Hydroxy-9H-xanthene-9-carbonyloxy)-1-(3-thien-2-ylpropyl)-1-azoniabicyclo[2.2.2]octane; bromide]",19 nM
